Assays:
[1] = tested on: P388 murine leukemia cell line; assay: Identification of cytotoxic agents: P388 cell viability (ATP-Lite); assay type: cell-based; conditions: Mus musculus; P388 cells, 72 hours, intracellular ATP (ATP-Lite), concentration required to inhibit growth by 50%
Procedure: A P388 murine leukemia cell line was obtained from NCI, Frederick, Md. P388 cells were cultured in RPMI-1640 supplemented with 10% fetal bovine serum, 2 mM Glutamax, 1 mM sodium pyruvate, 0.1 mM non-essential amino acids and 10 mM HEPES. Cells were grown at 37° C. in a humidified 5% CO2 atmosphere. Exponentially growing P388 cells were plated at 5,000 cells/well in a 96-well flat-bottomed microtiter plate (Corning, Costar #3595). […] Cellular viability was determined 72 hours later by measuring intracellular ATP with ATP-Lite assay system. The effect of compounds on cell viability was calculated by comparing the ATP levels of cells exposed to test compound with those of cells exposed to DMSO. A semi-log plot of relative ATP levels versus compound concentration was used to calculate the compound concentration required to inhibit growth by 50% (IC50). Data was analyzed by Prism software (GraphPad; San Diego, Calif.) by fitting it to a sigmoidal dose response curve.

[2] = tested on: P388/ADR cell lines (overexpress multidrug resistance pump MDR-1); assay: Multidrug resistant cell assay: P388/ADR cell viability (ATP-lite); assay type: cell-based; conditions: Mus musculus, P388/ADR cells overexpressing MDR-1 (Pgp-1), 72 hours
Excerpt: Cytotoxicity of compounds in multidrug resistant cells can be determined by administering compounds to cell lines that overexpress the multidrug resistance pump MDR-1 and determining the viability of the cell lines. P388/ADR cell lines are known to overexpress the multidrug resistance pump MDR-1 (also known as P-glycoprotein-1; Pgp-1).
P388/ADR cell lines are obtained from American Type Culture Collection (Manassas, Va.) and maintained in RPMI-1640 media supplemented with 10% FCS, 10 units/ml penicillin and streptomycin, 2 mM Glutamax and 1 mM sodium pyruvate (Invitrogen Corporation, Carlsbad, Calif.). For compound testing, cells are plated in 96 well dishes at a concentration of 1.5×10^4 cells/well. Cells are allowed to adhere to the plate overnight and then incubated with compounds at final concentrations ranging from 0.13 nM to 10 uM for 72 hours. Cell viability is then assessed using the ATP-lite reagent (Perkin Elmer, Foster City, Calif.). Plates are read on a Wallac Topcount luminescence reader (Perkin Elmer, Foster City, Calif.) and the results graphed in Prism software (Graphpad Software, Inc., San Diego, Calif.). Non-linear regression with variable slope analysis is performed to obtain IC50 concentration values.

Structure (SMILES): COc1ccc(N(C)c2ccnc(Cl)n2)cc1 [Example 1, (2-Chloro-pyrimidin-4-yl)-(4-methoxyphenyl)-methyl amine]
- IC50 [1]: 280 nM
- IC50 [2]: 480 nM

Structure (SMILES): COC(=O)c1cc(N(C)c2ccc(OC)cc2)nc(Cl)n1 [Example 2, Methyl 2-chloro-6-[(4-methoxyphenyl)(methyl)amino]pyrimidine-4-carboxylate]
- IC50 [1]: 9000 nM

Structure (SMILES): CCOC(=O)c1cnc(SC)nc1N(C)c1ccc(OC)cc1 [Example 3, Ethyl 4-[(4-methoxyphenyl)(methyl)amino]-2-(methylthio)pyrimidine-5-carboxylate]
- IC50 [1]: 54 nM
- IC50 [2]: 78 nM

Structure (SMILES): COc1ccc(N(C)c2cc(C)nc(N(C)C)n2)cc1 [Example 4, N^4-(4-Methoxyphenyl)-N^2,N^2,N^4,6-tetramethylpyrimidine-2,4-diamine]
- IC50 [1]: 1060 nM
- IC50 [2]: 1100 nM

Structure (SMILES): COc1ccc(N(C)c2ccnc(N(C)C)n2)cc1 [Example 5, N^4-(4-Methoxyphenyl)-N^2,N^2,N^4-trimethylpyrimidine-2,4-diamine]
- IC50 [1]: 7900 nM
- IC50 [2]: 6200 nM

Structure (SMILES): COc1ccc(N(C)c2ccnc(C#N)n2)cc1 [Example 6, 4-[(4-Methoxyphenyl)(methyl)amino]pyrimidine-2-carbonitrile]
- IC50 [1]: 6800 nM

Structure (SMILES): COc1ccc(N(C)c2cc(C)nc(C#N)n2)cc1 [Example 7, 4-[(4-Methoxyphenyl)(methyl)amino]-6-methylpyrimidine-2-carbonitrile]
- IC50 [1]: 2500 nM
- IC50 [2]: 3900 nM

Structure (SMILES): COc1ccc(N(C)c2cc(Cl)nc(N)n2)cc1 [Example 8, 6-Chloro-N^4-(4-methoxyphenyl)-N^4-methylpyrimidine-2,4-diamine]
- IC50 [1]: 1900 nM
- IC50 [2]: 2400 nM

Structure (SMILES): COc1ccc(N(C)c2ccnc(CN)n2)cc1 [Example 9, 2-(Aminomethyl)-N-(4-methoxyphenyl)-N-methylpyrimidin-4-amine]
- IC50 [1]: 1900 nM
- IC50 [2]: 3100 nM

Structure (SMILES): COc1ccc(N(C)c2cc(-c3ccccc3)nc(C)n2)cc1 [Example 10]
- IC50 [1]: 1600 nM
- IC50 [2]: 800 nM

Structure (SMILES): COc1ccc(N(C)c2cc(C)nc(C)n2)cc1 [Example 11, (2,6-dimethyl-pyrimidin-4-yl)-(4-methoxyphenyl)-methylamine]
- IC50 [1]: 310 nM
- IC50 [2]: 400 nM

Structure (SMILES): COc1ccc(N(C)c2nc(C)ncc2NS(=O)(=O)c2ccc(OC)cc2)cc1 [Example 12, 4-Methoxy-N-{4-[(4-methoxyphenyl)-methylamino]-2-methyl-pyrimidin-5-yl)-benzenesulfonamide]
- IC50 [1]: 57 nM
- IC50 [2]: 62 nM

Structure (SMILES): COc1ccc(S(=O)(=O)Nc2cnc(C)nc2N(C)c2ccc(O)cc2)cc1 [Example 13, N-{4-[(4-hydroxyphenyl)-methylamino]-2-methyl-pyrimidin-5-yl)-4-methyoxy-benzenesulfonamide]
- IC50 [1]: 1400 nM
- IC50 [2]: 7400 nM

Source: patent US20090280133A1, “PHARMACEUTICAL COMPOUNDS AS INHIBITORS OF CELL PROLIFERATION AND THE USE THEREOF” (Myriad Genetics, Incorporated, priority 2006, published 2009)
